The values that follow come from BindingDB's records for doi:10.7270/Q2N014XN (Srmlsc, 2007).

Structures can show the parent of a compound that is named as a salt. Bounds are passed on as bounds.

In one assay the target is T1, Diphosphomevalonate decarboxylase (Streptococcus pneumoniae serotype 2 (strain D39 / NCTC 7466), UniProt A0A0H2ZN59).
T1 sequence (A0A0H2ZN59 whole entry): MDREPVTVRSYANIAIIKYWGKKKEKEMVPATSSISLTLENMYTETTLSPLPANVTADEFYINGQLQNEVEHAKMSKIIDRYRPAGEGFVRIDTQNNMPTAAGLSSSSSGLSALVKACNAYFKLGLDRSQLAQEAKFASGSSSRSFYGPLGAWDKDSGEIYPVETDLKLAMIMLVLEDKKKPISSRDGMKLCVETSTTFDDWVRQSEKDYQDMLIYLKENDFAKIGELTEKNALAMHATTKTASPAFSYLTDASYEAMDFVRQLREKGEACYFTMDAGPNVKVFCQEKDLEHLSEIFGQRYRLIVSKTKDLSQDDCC
Kind of assay: S. pneumoniae DPM-DC inhibitor potency, dose response, biochemical, PK/LDH-coupled NADH fluorescence, hexokinase coupling counter-screen (AID 550).
Settings: not given
Background: The purpose of a counterscreen is to sort out artefacts and off-target activity.
With `Cc1ccc(S(=O)(=O)N2CCOCC(=O)NCCOCCNC(=O)COCC2)cc1` [16-(4-methylphenyl)sulfonyl-1,7,13-trioxa-4,10,16-triazacyclooctadecane-3,11-dione], the IC50 – broadly, the concentration that gives 50% inhibition – was greater than 10000 µM.
Compound `Cn1ncc2c(Nc3ccc(-c4ccccc4)cc3)ncnc21` [(1-methylpyrazolo[3,4-d]pyrimidin-4-yl)-(4-phenylphenyl)amine] showed an IC50 of 53.7 µM.
On the same count and under the same terms, for `COc1cccc(C=Nn2c(C)nnc2C)c1OC` [(2,3-dimethoxybenzylidene)-(3,5-dimethyl-1,2,4-triazol-4-yl)amine] the value was greater than 10000 µM; for `O=NC1=C(Cc2ccco2)CCC1` [(2E)-2-(2-furanylmethylidene)-1-cyclopentanone oxime], greater than 10000 µM; for `CN(C)[C@@H]1C(=O)C(C(N)=O)C(=O)[C@@]2(O)C(=O)C3C(=O)c4c(O)cccc4[C@@](C)(O)[C@H]3[C@H](O)[C@@H]12` (stereo partly drawn) [(2E,4S,4aR,5S,5aR,6S,12aS)-2-[azanyl(oxidanyl)methylidene]-4-(dimethylamino)-6-methyl-5,6,10,11,12a-pentakis(oxidanyl)-4,4a,5,5a-tetrahydrotetracene-1,3,12-trione], 36.8 µM.
Same read-out and setting: for `COc1cc2c(cc1OC)C(CC(=O)N1CCOCC1)=NC(C)(C)C2` [(2Z)-2-(6,7-dimethoxy-3,3-dimethyl-2,4-dihydroisoquinolin-1-ylidene)-1-(4-morpholinyl)ethanone;hydrochloride] the value was 38.8 µM; for `COc1ccc(N2C(C)=CS/C2=C(/C#N)c2nnc(N3CCOCC3)n2-c2ccccc2)cc1` [(2Z)-2-[3-(4-methoxyphenyl)-4-methyl-1,3-thiazol-2-ylidene]-2-(5-morpholin-4-yl-4-phenyl-1,2,4-triazol-3-yl)acetonitrile], greater than 10000 µM; for `CC(C)C(OC(=O)CN1C(=O)COc2ccccc21)C(=O)NC1CCCC1` (stereo not given) [(3-Oxo-2,3-dihydro-benzo[1,4]oxazin-4-yl)-acetic acid 1-cyclopentylcarbamoyl-2-methyl-propyl ester], greater than 10000 µM.
Turning to `Cc1cc(O)c(C=Nc2cccc(Cl)c2)c(=O)o1` [(3Z)-3-[(3-chloroanilino)methylene]-6-methyl-pyran-2,4-quinone], the IC50 is greater than 10000 µM.
Take `COc1cccc(C(=O)OCn2nnc3ccccc3c2=O)c1` [(4-oxidanylidene-1,2,3-benzotriazin-3-yl)methyl 3-methoxybenzoate]: the IC50 was greater than 10000 µM.
The same measure, in the same setting: the value for `CC(=NCc1ccco1)c1c(C)[nH]n(-c2nc3ccccc3s2)c1=O` [(4Z)-2-(1,3-benzothiazol-2-yl)-4-[1-(furan-2-ylmethylamino)ethylidene]-5-methyl-pyrazol-3-one] was greater than 10000 µM; that for `Cc1cc(N2CCOCC2)c2c(N)c(Br)cc(C)c2n1` [(6-bromo-2,8-dimethyl-4-morpholino-5-quinolyl)amine] was greater than 10000 µM; that for `CCc1cc(C(Cc2ccc3ccccc3n2)N=O)c(O)cc1O` (stereo not given) [(6Z)-4-ethyl-3-hydroxy-6-[1-(hydroxyamino)-2-(2-quinolinyl)ethylidene]-1-cyclohexa-2,4-dienone] was greater than 10000 µM.
For `N#C/C(=C\C1CC=CCC1)c1nc2ccccc2[nH]1` (stereo not given) [(E)-2-(1H-benzimidazol-2-yl)-3-cyclohex-3-en-1-ylprop-2-enenitrile], the IC50 was greater than 10000 µM.
Compound `CCCn1c(=O)c2ccccc2n2c(SCC(=O)C(C#N)C(C)=N)nnc12` (stereo not given) [(E)-3-amino-2-[1-oxo-2-[(5-oxo-4-propyl-[1,2,4]triazolo[4,3-a]quinazolin-1-yl)thio]ethyl]-2-butenenitrile] displayed an IC50 greater than 10000 µM.
Same read-out and setting: for `CC(O)COc1ccc(C(N=O)c2ccccc2)cc1` (stereo not given) [(E)-[4-(2-hydroxypropoxy)phenyl](phenyl)methanone oxime] the value was greater than 10000 µM.
The compound `COc1ccccc1N1CCN(C(=O)CSc2nnc(NC(=O)c3ccco3)s2)CC1` [Furan-2-carboxylic acid (5-{2-[4-(2-methoxy-phenyl)-piperazin-1-yl]-2-oxo-ethylsulfanyl}-[1,3,4]thiadiazol-2-yl)-amide] showed an IC50 of 262 µM.
Still for that read-out and setting: for `CCOc1cc(NC(=O)c2ccco2)c(OCC)cc1NC(=O)CCc1ccc(OC)cc1` [Furan-2-carboxylic acid {2,5-diethoxy-4-[3-(4-methoxy-phenyl)-propionylamino]-phenyl}-amide] the value was greater than 10000 µM; for `COc1ccc2c(c1)C1(C)CC(C)(C)N2C(=O)N1c1ccccc1` (stereo not given) [MLS000027457], 182 µM; for `CCCC(=O)Nc1ccc(N2CCN(C(=O)CCC)CC2)cc1` [MLS000034431], greater than 10000 µM.
`O=C(c1ccc(F)cc1)N1CCC(N2CCCCCC2)CC1` [MLS000037563] displayed an IC50 greater than 10000 µM.
In turn, `O=C(c1ccccc1F)N(Cc1ccccc1)C1CCS(=O)(=O)C1` (stereo not given) [MLS000039394] yielded a half-maximal inhibitory concentration (IC50) greater than 10000 µM.
The same measure, in the same setting: the value for `COC(=O)c1[nH]c2cccc(OC)c2c1NC(=O)CCN1CCN(c2ccccc2OC)CC1` [MLS000040529] was 27.4 µM; that for `O=C(CSc1ncnc2c1cnn2-c1ccccc1)Nc1ccc2c(c1)OCO2` [MLS000041214] was greater than 10000 µM.
For `Cc1ccc2cc3c(NC(=O)c4ccco4)nn(C)c3nc2c1` [MLS000041273], the IC50 is 45.7 µM.
`CCCn1c(C)nc2c(c1=O)c1nc3ccccc3nc1n2-c1ccc2c(c1)OCCO2` [MLS000042026] came in with an IC50 greater than 10000 µM.
As to `CCN(CC)S(=O)(=O)c1ccc(NC(=O)c2cccc3c2C(=O)N(CCOC)C3)cc1` [MLS000045293], half-maximal inhibition (IC50) required 50.5 µM.
Compound `O=C(NCC1CCCO1)c1coc2nc3ccccc3nc12` (stereo not given) [MLS000046703] gave an IC50 of 30.6 µM.
In the case of `CC(NC(=O)c1cccc(N2CCCC2=O)c1)c1ccc2c(c1)OCCO2` (stereo not given) [MLS000046772], the IC50 is greater than 10000 µM.
Consider `Cc1c(NC(=O)CN2c3cccc4cccc(c34)S2(=O)=O)c(=O)n(-c2ccccc2)n1C` [MLS000050268], for which the IC50 worked out at 34.2 µM.
`O=C(Nc1ccc2nc(-c3cccs3)c(-c3cccs3)nc2c1)N1CCOCC1` [MLS000050299] showed an IC50 of 25.8 µM.
`NC(=O)c1ccsc1NC(=O)c1nc(-c2ccccc2)n(-c2ccccc2)n1` [MLS000054020] returned an IC50 of 55.9 µM.
`Cc1coc2cc3oc(=O)c4c(c3cc12)CCC4` [MLS000054228] showed an IC50 of 52.9 µM.
`CC(C)CNC(=O)COc1ccc2c3c(c(=O)oc2c1)CCC3` [MLS000054673] showed an IC50 of 65.4 µM.
Compound `CCCN(CC(=O)c1cc(C)n(C)c1C)S(=O)(=O)c1cccc(C(F)(F)F)c1` [MLS000055141] returned an IC50 greater than 10000 µM.
`O=C(COc1cnc2ccccc2n1)NCCC1=CCCCC1` [MLS000056304] gave an IC50 of 188 µM.
Still for that read-out and setting: the value for `O=C(CSc1nnc2ccccn12)Nc1ccccc1C(=O)NC1CC1` [MLS000056825] was greater than 10000 µM.
Still for that read-out and setting: for `Oc1nc(-c2ccncc2)nc2ccccc12` [MLS000056988] the value was greater than 10000 µM; for `O=S(=O)(Nc1cccc2ncccc12)c1cccs1` [MLS000057468], greater than 10000 µM.
Same read-out and setting: the value for `Cc1ccc(-n2c(SCC(=O)NCc3ccco3)nnc2-c2cccnc2)c(C)c1` [MLS000058402] was greater than 10000 µM; that for `COc1cc(NC(=O)c2ccc3c(c2)OCO3)c2ncccc2c1` [MLS000061736] was 52 µM; that for `CC(C)(CO)NC(=O)C(c1ccccc1)c1ccccc1` [MLS000062471] was greater than 10000 µM.
Consider `O=C(Nc1ccc(-c2nc3ncccc3o2)cc1)c1ccco1` [MLS000062759], for which the midpoint of inhibition, the IC50, lay at 34.9 µM.
In the case of `CCc1ccc(CCC(=O)Nc2ccc(C)c(C)c2)o1` [MLS000064736], the IC50 was greater than 10000 µM.
Same read-out and setting: the value for `C=CCNc1nc(N2CCCC2)nc2ccccc12` [MLS000066749] was 66.6 µM.
Take `CC(=O)Nc1cccc(NC(=O)CSc2nnnn2Cc2ccccc2)c1` [MLS000068005]: the IC50 was greater than 10000 µM.
Compound `CCC(=O)Nc1cccc(NC(=O)CSc2nnnn2Cc2ccccc2)c1` [MLS000068150] showed an IC50 greater than 10000 µM.
`COc1cc(NC(=O)c2ccco2)c(OC)cc1NC(=O)CCC(=O)Nc1cc(C)ccc1C` [MLS000072545] returned an IC50 greater than 10000 µM.
`CCn1c(SCC(=O)Nc2cccc(C(C)=O)c2)nnc1C(C)C` [MLS000073205] registered an IC50 greater than 10000 µM.
With `COc1ccc(C2C3=C(OC(C)=O)c4ccccc4C3=Nc3c2c(=O)n(C)c(=O)n3C)cc1` (stereo not given) [MLS000073247], the IC50 is greater than 10000 µM.
`COc1cc(C(=O)Nc2ccc3c(c2)OCO3)ccc1-n1cnnn1` [MLS000073665] had an IC50 greater than 10000 µM.
Compound `O=C(Nc1ccc(N2CCCCC2)cc1)c1cccnc1` [MLS000074324] came in with an IC50 greater than 10000 µM.
The same measure, in the same setting: for `Cc1cc(N2CCN(C(=O)c3ccco3)CC2)n2nc(-c3cccc(Cl)c3)cc2n1` [MLS000076302] the value was greater than 10000 µM; for `COc1ccc(-n2c(NC(=O)c3ccco3)c(C#N)c3nc4ccccc4nc32)cc1` [MLS000079925], 16.9 µM.
Still for that read-out and setting: the value for `CCCN1C(=O)C(NC(C)=O)c2cc(OC)ccc21` (stereo not given) [MLS000080624] was greater than 10000 µM.
On to `CCOC(=O)Cc1csc(-n2sc3ccccc3c2=O)n1` [MLS000082162], for which the IC50 was 7.58 µM.

Staying with this assay, now noted: inactive by the depositor's call.
For the compound `O=C(O)c1cccn2c(=O)c3ccccc3nc12` [11-Oxo-11H-pyrido[2,1-b]quinazoline-6-carboxylic acid], half-maximal inhibition (IC50) required 66.7 µM.
Compound `Clc1ccc2c(c1)[C@H]1OCC[C@H]1[C@@H](c1ccco1)N2` [(3aS,4S,9bS)-8-chloranyl-4-(furan-2-yl)-2,3,3a,4,5,9b-hexahydrofuro[3,2-c]quinoline] displayed an IC50 of 24.4 µM.
With `CCC(=O)Oc1ccc2c(C)cc(=O)oc2c1C` [(4,8-dimethyl-2-oxidanylidene-chromen-7-yl) propanoate], inhibition was half-maximal at 29.9 µM (IC50).
Compound `C/C(C=Nn1cnnc1)=C\c1ccco1` [(E)-3-(2-furanyl)-2-methyl-N-(1,2,4-triazol-4-yl)-2-propen-1-imine] returned an IC50 of 125 µM.
